Data published in the supplement of paper PMC9265050, “Inhibition of RNA Binding in SND1 Increases the Levels of miR-1-3p and Sensitizes Cancer Cells to Navitoclax” (Cancers, 2022).

System: SW480
Test: drug sensitivity score (DSS, integrated dose-response area); higher = more sensitive (stronger viability reduction); extreme values may be limits of the assay
Procedure, shortened: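 The drug sensitivity score is the integrated area under a fitted non-linear dose–response model. It was derived from SW480 cells with doxycycline-inducible control or SND1-targeting shRNA, induced with 0.1 µg/mL doxycycline for 7 days and plated at 1000 cells per well on 384-well plates of 525 commercially available small-molecule inhibitors at five concentrations. CellTiter-Glo measured viability after 72 h.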

[1] = shRNA: SND1 shRNA1 (SND1 silenced)
[2] = shRNA: SND1 shRNA2 (SND1 silenced)
[3] = shRNA: control shRNA (non-targeting)

SMILES | drug sensitivity score [1] | drug sensitivity score [2] | drug sensitivity score [3]
CC1(C)CCC(c2ccc(Cl)cc2)=C(CN2CCN(c3ccc(C(=O)NS(=O)(=O)c4ccc(N[C@H](CCN5CCOCC5)CSc5ccccc5)c(S(=O)(=O)C(F)(F)F)c4)cc3)CC2)C1 [Navitoclax] | 7.4 DSS | 5.6 DSS | 0 DSS
COc1nc(N)nc2c1ncn2[C@@H]1O[C@H](CO)[C@@H](O)[C@@H]1O [Nelarabine] | 0 DSS | 0 DSS | 0 DSS
CCOc1cc2ncc(C#N)c(Nc3ccc(OCc4ccccn4)c(Cl)c3)c2cc1NC(=O)/C=C/CN(C)C [Neratinib] | 3.9 DSS | 4.3 DSS | 4 DSS
Cc1cn(-c2cc(NC(=O)c3ccc(C)c(Nc4nccc(-c5cccnc5)n4)c3)cc(C(F)(F)F)c2)cn1 [Nilotinib] | 2.6 DSS | 3.8 DSS | 1.6 DSS
CC1(C)NC(=O)N(c2ccc([N+](=O)[O-])c(C(F)(F)F)c2)C1=O [Nilutamide] | 0 DSS | 0 DSS | 0 DSS
COC(=O)c1ccc2c(c1)NC(=O)/C2=C(\Nc1ccc(N(C)C(=O)CN2CCN(C)CC2)cc1)c1ccccc1 [Nintedanib] | 8.4 DSS | 6.8 DSS | 0 DSS
NC(=O)c1cccc2cn(-c3ccc([C@@H]4CCCNC4)cc3)nc12 [Niraparib] | 3.3 DSS | 1.1 DSS | 4.9 DSS
COc1ccc(C2=N[C@@H](c3ccc(Cl)cc3)[C@@H](c3ccc(Cl)cc3)N2C(=O)N2CCNC(=O)C2)c(OC(C)C)c1 [Nutlin-3] | 0 DSS | 0 DSS | 0.2 DSS
COc1cccc2cc(-c3nc([C@H]4CC[C@H](C(=O)O)CC4)n4ncnc(N)c34)[nH]c12 [OSI-027] | 5.4 DSS | 7.1 DSS | 2.5 DSS
O=C(Nc1ccc(OC(F)(F)F)cc1)c1sccc1NCc1ccnc2ccccc12 [OSI-930] | 1.8 DSS | 6.5 DSS | 6.3 DSS
CC(=O)c1cnc2ccc(-c3cc(Cl)c(O)c(Cl)c3)nc2c1N[C@H]1CC[C@H](CN(C)C)CC1 [OTSSP167] | 9.8 DSS | 8.7 DSS | 10.6 DSS
Cc1sc2c(c1C)C(c1ccc(Cl)cc1)=N[C@@H](CC(=O)Nc1ccc(O)cc1)c1nnc(C)n1-2 [OTX015] | 1.9 DSS | 0.8 DSS | 0.7 DSS
COC1=CC(c2cc3ccccc3[nH]2)=N/C1=C\c1[nH]c(C)cc1C [Obatoclax] | 2.5 DSS | 0 DSS | 0.1 DSS
O=C(c1cc(Cc2n[nH]c(=O)c3ccccc23)ccc1F)N1CCN(C(=O)C2CC2)CC1 [Olaparib] | 2.7 DSS | 0 DSS | 0 DSS
COC(=O)C[C@](O)(CCCC(C)(C)O)C(=O)O[C@@H]1C(OC)=C[C@]23CCCN2CCc2cc4c(cc2[C@H]13)OCO4 [Omacetaxine] | 21.9 DSS | 23.5 DSS | 23.3 DSS
COc1ncc(-c2ccc3nccc(-c4ccnnc4)c3c2)cc1NS(=O)(=O)c1ccc(F)cc1F [Omipalisib] | 13.7 DSS | 12.4 DSS | 9.7 DSS
CC(C)c1cc(C(=O)N2Cc3ccc(CN4CCN(C)CC4)cc3C2)c(O)cc1O [Onalespib] | 11.3 DSS | 9.4 DSS | 13.8 DSS
COC[C@H](NC(=O)c1cnc(C)s1)C(=O)N[C@@H](COC)C(=O)N[C@@H](Cc1ccccc1)C(=O)[C@@]1(C)CO1 [Oprozomib] | 17.7 DSS | 16.5 DSS | 19 DSS
Cc1[nH]c(/C=C2\C(=O)Nc3ccccc32)c(C)c1CCC(=O)O [Orantinib] | 0 DSS | 0 DSS | 0.1 DSS
